From US6673938B1, “Substituted pyridine herbicides” (Syngenta Participations AG, priority 1998, dated 2004) come the findings set out here.

The test system of experiment [1] is Monocotyledonous and dicotyledonous test plants. Briefly: Post-emergence herbicidal action. Format: in vivo. Particulars: 2000 g/ha, sprayed in 4- to 6-leaf stage, evaluated after approximately 18 days, nine-step scale. How it is done:
Monocotyledonous and dicotyledonous test plants are grown in the greenhouse in plastic pots containing standard soil, and, in the 4- to 6-leaf stage, sprayed with an aqueous suspension of the test substances of the formula I prepared with a 25% wettable powder (Example F3, b) in accordance with WO 97/34485) or with an emulsion of the test substances of the formula I prepared with a 25% emulsion concentrate (Example F1, c) in accordance with WO 97/34485), corresponding to a rate of 2 kg of a.i./ha or 250 g of a.i./ha (500 l of water/ha). The test plants are subsequently grown on in the greenhouse under optimal conditions. After a test period of approximately 18 days, the test is evaluated with reference to a nine-step scale (1=complete damage, 9=no effect). Score figures of 1 to 4 (in particular 1 to 3) mean a good to very good herbicidal action. In this test, the compounds of the formula I show a potent herbicidal action.

Experiment [2] has the same test system. Kind of experiment: Herbicidal action before emergence of the plants (pre-emergence action). The conditions noted are these: 2000 g/ha, evaluated after 3 weeks, nine-step scale. The format is in vivo. How it is done:
Monocotyledonous and dicotyledonous test plants are sown in standard soil in plastic pots. Immediately after sowing, the test substances as aqueous suspensions (prepared with a 25% wettable powder (Example F3, b) in accordance with WO 97/34485) or as emulsions (prepared with a 25% emulsion concentrate (Example F1, c)) are sprayed on at a rate of 2 kg of a.i./ha or 250 g of a.i./ha (500 l of water/ha). The test plants are then grown in the greenhouse under optimal conditions. After a test period of 3 weeks, the experiment is evaluated with reference to a nine-step scale (1=complete damage, 9=no effect). Score figures of 1 to 4 (in particular 1 to 3) mean a good to very good herbicidal action.

Structures are written as SMILES.

With `CCN(CC)CC.Cc1nc(C(F)(F)F)ccc1C(=O)C1=C(O)CCCC1=O` [Compound A2-B1100], in experiment [1], the “Post-emergence action, Ipomoea” value was 2; the “Post-emergence action, Lolium” value was 2; the “Post-emergence action, Setaria” value was determined as 3; the “Post-emergence action, Sinapis” value is given as 1. In addition, in experiment [1], the “Post-emergence action, Solanum” value is on record as 1 and the “Post-emergence action, Stellaria” value was determined as 2. Also, in experiment [2], the “pre-emergence action, Cyperus” value was found to be 1; the “pre-emergence action, Ipomoea” value is given as 3; the “pre-emergence action, Setaria” value is on record as 1; the “pre-emergence action, Sinapis” value is 2. Moreover, in experiment [2], the “pre-emergence action, Solanum” value turned out to be 1 and the “pre-emergence action, Stellaria” value was 2.
For the compound `Cc1nc(C(F)(F)F)ccc1C(=O)C1=C(O)C(C)CCC1=O` (stereo not drawn) [Compound A2-B2], in experiment [1], the “Post-emergence action, Ipomoea” value came out at 1; the “Post-emergence action, Lolium” value is recorded as 2; the “Post-emergence action, Setaria” value is 2; the “Post-emergence action, Sinapis” value is 1. Also, in experiment [1], the “Post-emergence action, Solanum” value worked out at 2 and the “Post-emergence action, Stellaria” value worked out at 2. Further, in experiment [2], the “pre-emergence action, Cyperus” value was found to be 1; the “pre-emergence action, Ipomoea” value came to 1; the “pre-emergence action, Setaria” value came out at 1; the “pre-emergence action, Sinapis” value was found to be 1. Besides, in experiment [2], the “pre-emergence action, Solanum” value amounted to 1 and the “pre-emergence action, Stellaria” value came out at 2.
In the case of `COCc1nc(C(F)(F)F)ccc1C(=O)C1=C(O)C(C)(C(=O)OC)CCC1=O` (stereo not drawn) [Compound A8-B34], in experiment [1], the “Post-emergence action, Ipomoea” value is reported as 2; the “Post-emergence action, Lolium” value stood at 2; the “Post-emergence action, Setaria” value was 2; the “Post-emergence action, Sinapis” value amounted to 2. For the same compound, in experiment [1], the “Post-emergence action, Solanum” value came out at 2 and the “Post-emergence action, Stellaria” value was found to be 2. Further, in experiment [2], the “pre-emergence action, Cyperus” value is given as 2; the “pre-emergence action, Ipomoea” value turned out to be 3; the “pre-emergence action, Setaria” value is recorded as 2; the “pre-emergence action, Sinapis” value is on record as 2. In experiment [2], the “pre-emergence action, Solanum” value was found to be 2 and the “pre-emergence action, Stellaria” value worked out at 2.
Take `Cc1nc(C(F)(F)F)ccc1C(=O)C1=C(O)C(C)(C(C)C)CC(C)(C)C1=O` (stereo not drawn) [Compound A2-B93]: in experiment [1], the “Post-emergence action, Ipomoea” value is listed as 1; the “Post-emergence action, Lolium” value worked out at 2; the “Post-emergence action, Setaria” value turned out to be 2; the “Post-emergence action, Sinapis” value was found to be 1. For the same compound, in experiment [1], the “Post-emergence action, Solanum” value amounted to 2 and the “Post-emergence action, Stellaria” value is on record as 2. Further, in experiment [2], the “pre-emergence action, Cyperus” value amounted to 2; the “pre-emergence action, Ipomoea” value is recorded as 4; the “pre-emergence action, Setaria” value is on record as 2; the “pre-emergence action, Sinapis” value is reported as 2. Also, in experiment [2], the “pre-emergence action, Solanum” value is listed as 1 and the “pre-emergence action, Stellaria” value amounted to 2.
As for `COC1CCC(=O)C(C(=O)c2ccc(C(F)(F)F)nc2C)=C1O` (stereo not drawn) [Compound A2-B1068], in experiment [1], the “Post-emergence action, Ipomoea” value is recorded as 1; the “Post-emergence action, Lolium” value is given as 2; the “Post-emergence action, Setaria” value is 4; the “Post-emergence action, Sinapis” value was found to be 1. In addition, in experiment [1], the “Post-emergence action, Solanum” value is 1 and the “Post-emergence action, Stellaria” value was 2. In addition, in experiment [2], the “pre-emergence action, Cyperus” value is given as 2; the “pre-emergence action, Ipomoea” value came to 2; the “pre-emergence action, Setaria” value stood at 2; the “pre-emergence action, Sinapis” value was 2. Moreover, in experiment [2], the “pre-emergence action, Solanum” value is reported as 1 and the “pre-emergence action, Stellaria” value was 2.
Regarding `Cc1nc(C(F)(F)F)ccc1C(=O)C1=C(O)C(C)CC(C)C1=O` (stereo not drawn) [A2-B46 (trans)], in experiment [1], the “Post-emergence action, Ipomoea” value is reported as 1; the “Post-emergence action, Lolium” value came out at 2; the “Post-emergence action, Setaria” value is 2; the “Post-emergence action, Sinapis” value amounted to 1. For the same compound, in experiment [1], the “Post-emergence action, Solanum” value was found to be 1 and the “Post-emergence action, Stellaria” value was determined as 2. For the same compound, in experiment [2], the “pre-emergence action, Cyperus” value turned out to be 1; the “pre-emergence action, Ipomoea” value worked out at 2; the “pre-emergence action, Setaria” value stood at 1; the “pre-emergence action, Sinapis” value came to 2. Besides, in experiment [2], the “pre-emergence action, Solanum” value is 1 and the “pre-emergence action, Stellaria” value was 2.
Turning to `Cc1nc(C(F)(F)F)ccc1C(=O)C1=C(O)C(C)(S(C)(=O)=O)CC(C)C1=O` (stereo not drawn) [Compound A2-B75], in experiment [1], the “Post-emergence action, Ipomoea” value is 2; the “Post-emergence action, Lolium” value is 2; the “Post-emergence action, Setaria” value is reported as 3; the “Post-emergence action, Sinapis” value was found to be 1. In experiment [1], the “Post-emergence action, Solanum” value was 2 and the “Post-emergence action, Stellaria” value turned out to be 2. Further, in experiment [2], the “pre-emergence action, Cyperus” value turned out to be 2; the “pre-emergence action, Ipomoea” value came out at 3; the “pre-emergence action, Setaria” value is on record as 2; the “pre-emergence action, Sinapis” value stood at 2. Also, in experiment [2], the “pre-emergence action, Solanum” value was found to be 1 and the “pre-emergence action, Stellaria” value amounted to 2.
Consider `Cc1nc(C(F)(F)F)ccc1C(=O)C1=C(O)C(C)(C)CC(C)C1=O` (stereo not drawn) [Compound A2-B68], for which, in experiment [1], the “Post-emergence action, Ipomoea” value turned out to be 1; the “Post-emergence action, Lolium” value is on record as 2; the “Post-emergence action, Setaria” value was found to be 2; the “Post-emergence action, Sinapis” value stood at 1. In experiment [1], the “Post-emergence action, Solanum” value is reported as 1 and the “Post-emergence action, Stellaria” value was 2. In addition, in experiment [2], the “pre-emergence action, Cyperus” value is reported as 1; the “pre-emergence action, Ipomoea” value was 2; the “pre-emergence action, Setaria” value worked out at 1; the “pre-emergence action, Sinapis” value worked out at 2. For the same compound, in experiment [2], the “pre-emergence action, Solanum” value was found to be 1 and the “pre-emergence action, Stellaria” value amounted to 2.
On to `Cc1nc(C(F)(F)F)ccc1C(=O)C1=C(O)C(C)(C)CC2(CC2)C1=O` [Compound A2-C24], for which, in experiment [1], the “Post-emergence action, Ipomoea” value amounted to 1; the “Post-emergence action, Lolium” value stood at 1; the “Post-emergence action, Setaria” value amounted to 1; the “Post-emergence action, Sinapis” value came to 1. In experiment [1], the “Post-emergence action, Solanum” value came to 1 and the “Post-emergence action, Stellaria” value is on record as 1. Besides, in experiment [2], the “pre-emergence action, Cyperus” value was determined as 1; the “pre-emergence action, Ipomoea” value was determined as 2; the “pre-emergence action, Setaria” value came to 1; the “pre-emergence action, Sinapis” value was 1. In addition, in experiment [2], the “pre-emergence action, Solanum” value is 1 and the “pre-emergence action, Stellaria” value came to 2.
Regarding `Cc1nc(C(F)(F)F)ccc1C(=O)C1=C(O)C(C)CC(C)C1=O` (stereo not drawn) [A2-B46 (cis)], in experiment [1], the “Post-emergence action, Ipomoea” value stood at 1; the “Post-emergence action, Lolium” value came out at 2; the “Post-emergence action, Setaria” value is on record as 3; the “Post-emergence action, Sinapis” value came to 1. Moreover, in experiment [1], the “Post-emergence action, Solanum” value turned out to be 2 and the “Post-emergence action, Stellaria” value is given as 2. Also, in experiment [2], the “pre-emergence action, Cyperus” value came to 1; the “pre-emergence action, Ipomoea” value is reported as 2; the “pre-emergence action, Setaria” value came out at 1; the “pre-emergence action, Sinapis” value was 2. For the same compound, in experiment [2], the “pre-emergence action, Solanum” value is 1 and the “pre-emergence action, Stellaria” value was determined as 2.
As to `COCc1nc(C(F)(F)F)ccc1C(=O)C1=C(O)CC(C(F)(F)F)CC1=O` (stereo not drawn) [Compound A8-B1064], in experiment [1], the “Post-emergence action, Ipomoea” value came to 2; the “Post-emergence action, Lolium” value was 4; the “Post-emergence action, Setaria” value is given as 2; the “Post-emergence action, Sinapis” value worked out at 1. Besides, in experiment [1], the “Post-emergence action, Solanum” value turned out to be 1 and the “Post-emergence action, Stellaria” value is recorded as 2. Besides, in experiment [2], the “pre-emergence action, Cyperus” value was determined as 2; the “pre-emergence action, Ipomoea” value stood at 4; the “pre-emergence action, Setaria” value turned out to be 3; the “pre-emergence action, Sinapis” value amounted to 2. Moreover, in experiment [2], the “pre-emergence action, Solanum” value worked out at 1 and the “pre-emergence action, Stellaria” value is given as 3.
